The assay can be described thus: EGFP reporter destabilization counter-screen – F442A EGFP cells, fluorescence, counter-screen for p/CIP destabilizer project, dose response (AID 2005).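 Also: cells express EGFP alone from a CMV promoter as a counter screen for p/CIP-EGFP.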 The settings on record: F442A EGFP cells, EGFP fluorescence, 16 h, stronger effect = higher value.

Activity calls are given as the source filed them.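 The calls were made as follows: active = plate Z score at or below -3, or inhibition of at least 30% at 20 µM; inactive = the rest.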

By inhibition is commonly meant the relative decrease from the control value, in per cent.

Take `CCn1cnc2cc(NCc3cccc(OC)c3O)ccc21`: the inhibition is, setting by setting: (EGFP decrease, at 10 µM) 16.7%; (at 20 µM) 10.7% (inactive).
For `CCOc1ccc(N(CC(=O)Nc2cccc(Br)c2)S(C)(=O)=O)cc1`, the inhibition is 36.5% (EGFP decrease, at 10 µM) and 12.4% (inactive) (at 20 µM).
Regarding `CC(=O)N1CCN(C(=O)CCCNC(=O)c2ccc(Cl)cc2)CC1`, the inhibition is 21% (EGFP decrease, at 10 µM) and -1.6% (inactive) (at 20 µM).
Consider `CCS(=O)(=O)N1CCN(c2nc(-c3ccccc3)cs2)CC1`, for which the inhibition (EGFP decrease, at 10 µM) was 13.7% and the inhibition (at 20 µM) was 15.1% (inactive).
Take `COc1cc(C2NCCC(=O)C2(C)C)cc(OC)c1OC` (centres undefined): the inhibition was -1.8% (EGFP decrease, at 10 µM) and 21.4% (inactive) (at 20 µM).
The matching figures for `CCN(Cc1nc2ccccc2c(=O)[nH]1)Cc1nc2ccsc2c(=O)[nH]1`: 26.2% and 22.6% (inactive).
For `Cc1ccc(S(=O)(=O)Oc2ccc(/C=N/NC(=O)c3nn(C)cc3Cl)cc2)cc1`, the inhibition (EGFP decrease, at 10 µM) is 17.3% and the inhibition (at 20 µM) is 17.2% (inactive).
The matching figures for `Cc1c(N=NC2=C(O)CCCC2=O)c(=O)n(-c2ccccc2)n1C`: 6.5% and 21.3% (inactive).
For the compound `Cc1cc(C)n2nc(SCC(=O)c3ccccc3)nc2n1`, the inhibition is 23.7% (EGFP decrease, at 10 µM) and 31% (at 20 µM).
The matching figures for `O=C1NC(Cc2c[nH]c3ccccc23)C(=O)N1CCOc1ccc(F)cc1` (centres undefined): 11.9% and 9.1% (inactive).
As for `COc1cc(CNCCCO)ccc1OCC(=O)NC(C)(C)C`, the inhibition (EGFP decrease, at 10 µM) was -2.3% and the inhibition (at 20 µM) is 22.9% (inactive).
For `COC(=O)c1cccc(C23CC4(C2)[C@H](CN(C)[C@@H]4c2ccccc2)C3c2ccc(C(F)(F)F)cc2)c1` (some centres undefined), the inhibition runs as follows: (EGFP decrease, at 10 µM) 8%; (at 20 µM) 8.1% (inactive).
The matching figures for `CCC1=C(OC(=O)N(CC)CC)N2C(=O)OC(=NCC3CC3)[C@]2(Cc2ccccc2)[C@H]2C1=CC[C@H]1C(=O)N(CC(=O)OC)C(=O)[C@H]12`: 0.3% and 13.8% (inactive).
In the same order, the values of `COc1ccccc1OCc1ccc(C(=O)n2nc(C)c(Cl)c2C)o1` are -1.3% and 2.6% (inactive).
For `CCOc1ccc(-c2c[n+]3c(n2-c2ccccc2)CCCCC3)cc1`, the inhibition was 32.2% (EGFP decrease, at 10 µM) and 51.3% (at 20 µM).
In the same order, the values of `O=C(Nc1ccc(N2CCOCC2)cc1N1CCOCC1)c1ccc(Br)cc1` are 32.7% and 19.4% (inactive).
The matching figures for `CC(=O)c1ccc(OCc2cc(C(=O)NC3CCCCC3)no2)cc1`: 15.2% and 9.5% (inactive).
In the same order, the values of `O=c1cc(O)c2c(=O)n(C3CCCCC3)c3ccccc3c2o1` are 2.1% and 4.6% (inactive).
In the case of `CCC(=O)Nc1ccccc1Oc1ccccc1`, the inhibition runs as follows: (EGFP decrease, at 10 µM) 12.2%; (at 20 µM) 19.7% (inactive).
In the same order, the values of `O=C(NNS(=O)(=O)c1ccc(F)cc1)C1CCN(S(=O)(=O)c2ccccc2)CC1` are -22.3% and -6.1% (inactive).
In the same order, the values of `O=C(COc1ccc(F)cc1)Nc1nc2c(s1)CCCC2` are 26.7% and 24% (inactive).
Regarding `c1ccc(-c2cc(-c3nnco3)c3ccccc3n2)nc1`, the inhibition reads like this: (EGFP decrease, at 10 µM) 13.9%; (at 20 µM) -6.2% (inactive).
In the same order, the values of `CCOC(=O)c1c(C)oc2c(F)c(F)c(F)c(F)c2c1=O` are 32.1% and 19.8% (inactive).
The matching figures for `CC(=O)Nc1ccc(S(=O)(=O)Nc2nccs2)cc1`: 21.2% and 15.6% (inactive).
In the case of `CCCNC(=O)c1ccc2c(=O)c(O)c(-c3cccc(Br)c3)[nH]c2c1`, the inhibition (EGFP decrease, at 10 µM) is -14.1% and the inhibition (at 20 µM) was -14.4% (inactive).
As to `COc1ccc(CN(CC(=O)NCc2ccc(F)cc2)C(=O)CCC(=O)Nc2ccccn2)cc1`, the inhibition by setting is: (EGFP decrease, at 10 µM) -14.2%; (at 20 µM) 16.1% (inactive).
Take `Cc1cccc(C)c1NC(=O)c1ccccc1C(=O)O`: the inhibition is 18.1% (EGFP decrease, at 10 µM) and 20.4% (inactive) (at 20 µM).
As to `CCNc1nc(C)c2cc(Br)c(=O)n(CC)c2n1`, the inhibition is 18.2% (EGFP decrease, at 10 µM) and 4.8% (inactive) (at 20 µM).
Regarding `CSCCC(NC(=O)C1CCC(C)CC1)C(=O)Nc1ccc(NC(C)=O)cc1` (centres undefined), the inhibition is 24.8% (EGFP decrease, at 10 µM) and 18.5% (inactive) (at 20 µM).
In the same order, the values of `N#C/C(=C\c1cccnc1)C(=O)Nc1ccccc1[N+](=O)[O-]` are 27.7% and 2% (inactive).
The matching figures for `CC(C)c1ccc(/C=N/NC(=O)c2cccc(Cl)c2)cc1`: 16.9% and 44.6%.
In the same order, the values of `CCN1CCN(Cc2ccc(NC(=O)c3cc(NC(=O)C4=NN(c5ccccc5)C(=O)C4)cc(OC)c3)cc2C(F)(F)F)CC1` are 37.6% and 24.2% (inactive).
As to `O=C(Nc1ccnn1C1CCN(Cc2ccccc2OC(F)F)CC1)c1cccc(F)c1`, the inhibition is, setting by setting: (EGFP decrease, at 10 µM) 26.5%; (at 20 µM) 37.8%.
With `CC1CCC(NCc2ccco2)CC1` (centres undefined), the inhibition is, setting by setting: (EGFP decrease, at 10 µM) -0.9%; (at 20 µM) 18.9% (inactive).
For `CCN(C(=O)COC(=O)c1cc(NS(=O)(=O)c2ccc(Cl)c([N+](=O)[O-])c2)ccc1O)C1CCCCC1`, the inhibition runs as follows: (EGFP decrease, at 10 µM) 13.6%; (at 20 µM) 6.6% (inactive).
Regarding `Cc1cccc(-c2nnc3n2N=C(c2ccccc2Br)CS3)c1`, the inhibition was 18.2% (EGFP decrease, at 10 µM) and 10.8% (inactive) (at 20 µM).
For the compound `COc1ccc(OC)c(Nc2cc(C)c3ccccc3n2)c1`, the inhibition is, setting by setting: (EGFP decrease, at 10 µM) 13.3%; (at 20 µM) 5.4% (inactive).
Regarding `C[C@H]1CC[C@@H]2[C@@H](C)[C@H]3[C@H](C[C@H]4[C@@H]5CC=C6C[C@@H](O[C@@H]7O[C@H](CO)[C@H](O)[C@H](O[C@@H]8O[C@H](CO)[C@@H](O)[C@H](O)[C@H]8O)[C@H]7O[C@@H]7O[C@@H](C)[C@H](O)[C@@H](O)[C@H]7O)CC[C@]6(C)[C@H]5CC[C@]34C)N2C1`, the inhibition was 30.3% (EGFP decrease, at 10 µM) and -3% (inactive) (at 20 µM).
For `CC(OC(=O)C1CSC2(c3ccc(F)cc3)CCC(=O)N12)C(=O)NC(N)=O` (centres undefined), the inhibition (EGFP decrease, at 10 µM) was found to be 48.2% and the inhibition (at 20 µM) is -5.1% (inactive).
Take `CC1=C(C(=O)OCc2ccccc2)C(c2ccc(C(F)(F)F)cc2)NC(=O)N1CCCCCC(=O)O` (centres undefined): the inhibition is, setting by setting: (EGFP decrease, at 10 µM) -4.3%; (at 20 µM) -6% (inactive).
In the same order, the values of `O=S(=O)(Nc1cc(Sc2ncn[nH]2)c(O)c2ccccc12)c1ccccc1` are 38.3% and 2.2% (inactive).
In the same order, the values of `N#CCSCC(=O)Nc1ccc(F)cc1` are 4.7% and 4% (inactive).
Consider `C[C@@H](CN1C2=NC[C@H](Cc3ccc(O)cc3)N2C[C@H]1Cc1ccc(O)cc1)NC(=O)CCC1CCCCC1`, for which the inhibition was 19.4% (EGFP decrease, at 10 µM) and 28.8% (inactive) (at 20 µM).
Consider `CC(C)(C)c1cc(Cc2ccccc2)[nH]n1`, for which the inhibition reads like this: (EGFP decrease, at 10 µM) -3.7%; (at 20 µM) 35.1%.
Regarding `CC(CCc1ccccc1)NC(=O)CNC(=O)COc1ccccc1` (centres undefined), the inhibition (EGFP decrease, at 10 µM) was -4.8% and the inhibition (at 20 µM) was 28.2% (inactive).
The matching figures for `O=C(NCc1ccc(Cl)cc1)C1CCN(S(=O)(=O)c2cccs2)CC1`: 6% and 6.7% (inactive).
The matching figures for `CCCc1nc(NCC2CCCO2)c2nnn(Cc3ccccc3)c2n1` (centres undefined): 39% and 12.1% (inactive).
Turning to `COc1ccc(CNC(=O)C(c2ccc(C)o2)N(Cc2cccs2)C(=O)Cc2cccs2)cc1` (centres undefined), the inhibition is, setting by setting: (EGFP decrease, at 10 µM) 33.3%; (at 20 µM) 25.5% (inactive).
The matching figures for `Cc1c(NC(=O)CN2C(=O)NC3(CCC(C)CC3)C2=O)c(=O)n(-c2ccccc2)n1C` (centres undefined): 5.2% and 0.8% (inactive).
With `CCCCN(CCCC)CCCNC(=O)C12CN(Cc3ccccc3)CC1C(c1cccc([N+](=O)[O-])c1)=NO2` (centres undefined), the inhibition (EGFP decrease, at 10 µM) came out at 20.1% and the inhibition (at 20 µM) is -9.9% (inactive).
In the same order, the values of `CCCCCCn1c(=O)c(C(=O)Nc2cccc(C)n2)c(O)c2ccccc21` are 26.7% and 20.6% (inactive).
With `Cn1nc(-c2ccccn2)nc2c(=O)n(C)c(=O)nc1-2`, the inhibition (EGFP decrease, at 10 µM) is 61.5% and the inhibition (at 20 µM) was 45.6%.
The matching figures for `COC(=O)c1cc(NC(=O)CSc2nc(C)cc(=O)[nH]2)cc(C(=O)OC)c1`: 9.8% and 23.4% (inactive).
In the same order, the values of `CS(=O)(=O)Nc1ccccc1C(=O)Nc1cc(Cl)cc(Cl)c1` are 19.6% and -18.3% (inactive).
In the same order, the values of `c1ccc2c3nnc4n(c-3nc2c1)CCCS4` are 17.5% and 23.7% (inactive).
For `CCN(CC)C(=O)c1oc2ccc(S(=O)(=O)N3CC(C)CC(C)C3)cc2c1C` (centres undefined), the inhibition (EGFP decrease, at 10 µM) amounted to 29.3% and the inhibition (at 20 µM) is 49.5%.
In the same order, the values of `O=C(Cn1c(=O)[nH]c2ccccc2c1=O)N1CCN(c2cccc(Cl)c2)CC1` are 17.8% and 20.5% (inactive).
The matching figures for `Fc1ccc(NC(=S)NCc2cccnc2)cc1`: 28.3% and 8.7% (inactive).
Regarding `O=[N+]([O-])c1ccc(-c2nnc(CNC3CCCC3)o2)cc1`, the inhibition reads like this: (EGFP decrease, at 10 µM) 17.3%; (at 20 µM) 25.1% (inactive).
In the same order, the values of `CCCCn1c(SCC(=O)NCc2ccco2)nc2c(sc3ccccc32)c1=O` are 20.5% and 13.2% (inactive).
The matching figures for `O=C(O)c1ccc(NC2=C/C(=N/S(=O)(=O)c3ccccc3)c3ccccc3C2=O)cc1`: 38.1% and 41.2%.
The matching figures for `Cc1ccccc1NC(=O)C1CCCN(C(=O)Nc2ccc(F)cc2)C1` (centres undefined): 12.3% and 3.2% (inactive).
